Laboratory results published in ChEMBL document CHEMBL3526096, “Species differences in biliary clearance and possible relevance of hepatic uptake and efflux transporters involvement” (Drug Metab Dispos, 2013).

Tests used:
Homo sapiens [1] = assay: Total biliary clearance in iv dosed human after 6 hrs by T-tube method; type: ADME, organism-based, Bile; conditions: in vivo
Homo sapiens [2] = assay: Unbound biliary clearance in iv dosed human after 6 hrs; type: ADME, organism-based, Bile; conditions: in vivo
Rattus norvegicus [3] = assay: Total biliary clearance in iv dosed Wistar rat; type: ADME, organism-based, Bile; conditions: in vivo
Rattus norvegicus [4] = assay: Unbound biliary clearance in iv dosed Wistar rat; type: ADME, organism-based, Bile; conditions: in vivo
[5] = Drug excretion in iv dosed Wistar rat assessed as compound excreted into bile; type: ADME, organism-based; conditions: read-out: Drug excretion
[6] = Drug excretion in iv dosed human assessed as compound excreted into bile after 6 hrs; type: ADME, organism-based; conditions: read-out: Drug excretion
[7] = Drug excretion in iv dosed rat assessed as compound excreted into bile; type: ADME, organism-based; conditions: read-out: Drug excretion
[8] = Drug excretion in iv dosed dog assessed as compound excreted into bile; type: ADME, organism-based, Canis lupus familiaris; conditions: read-out: Drug excretion
[9] = Drug excretion in iv dosed human assessed as compound excreted into bile by T-tube method; type: ADME, organism-based; conditions: read-out: Drug excretion

Structure (SMILES)	CL (Homo sapiens [1])	CL free (Homo sapiens [2])	CL (Rattus norvegicus [3])	CL free (Rattus norvegicus [4])	dose excreted [5]	dose excreted at 6 h [6]	dose excreted [7]	dose excreted [8]	dose excreted [9]
Cn1nnnc1SCC1=C(C(=O)O)N2C(=O)[C@@H](NC(=O)[C@H](O)c3ccccc3)[C@H]2SC1 [CEFAMANDOLE]	0.00072 L/h/kg	0.00288 L/h/kg	0.3 L/h/kg	1.765 L/h/kg	33%	0.4%			
Cc1nnc(SCC2=C(C(=O)O)N3C(=O)[C@@H](NC(=O)Cn4cnnn4)[C@H]3SC2)s1 [CEFAZOLIN]							30%	2%	0.1%
